How the values were obtained:
[1] = test system: 20-HETE synthase originated from rat kidney microsome; experiment: Inhibitory effect of 20-HETE synthase originated from rat kidney microsome; format: biochemical; settings: for Inhibition rate (1 μM): 20-HETE production without compound set to 100%
Method: Experimental Example [Inhibitory effect of 20-HETE synthase originated from rat kidney microsome]
Regarding the compounds listed in Table 1, their inhibitory activity to production of 20-HETE was examined.
The subject compound for this examination was added to a buffer comprising 50 mM of 3-morpholinopropane sulfonic acid (pH7.4), 5 mM of magnesium chloride and 1 mM of ethylenediaminetetraacetic acid (EDTA) disodium salt.
After that, the rat kidney microsome (microsome fraction prepared from the kidney of a spontaneous hypertension rat (male, 6 weeks of age)) as an enzyme, [5,6,8,9,11,12,14,15] tritium-arachidonic acid (supplied by Amasham) as a substrate, and NADPH (supplied by Sigma) as a coenzyme were added and reacted for 1.5 hours at 37° C.
After the reaction, formic acid was added to stop the reaction, and then acetonitrile (final concentration of 50%) was added and left for 1.5 hours at room temperature.
The activity of 20-HETE synthase was measured by using a high performance liquid chromatograph having a detector for radioactive substances (supplied by Gilson), and equipped with a C18 reversed phase column (Biocyl C18, supplied by Bio-rad).

[2] = concentration at which production of 20-HETE was inhibited to 50%
[3] = 1 μM of the subject compound added, rat kidney microsome
[4] = concentration at which production of 20-HETE was inhibited to 50%, rat kidney microsome
[5] = 1 μM of subject compound, rat kidney microsome
[6] = concentration at which 20-HETE production was inhibited to 50%, rat kidney microsome

| SMILES | melting point | Inhibition rate (1 μM) [1, 5] | IC50 [1, 6] | further results |
| --- | --- | --- | --- | --- |
| CN(C)CCOc1ccc(N/C=N/O)cc1 [Comp. 399] | 118 to 120 °C |  |  | Inhibition rate (1 μM) ([1]; 1 μM of the subject compound): 102.3; IC50 [1, 2]: 98 nM |
| O/N=C/Nc1ccc(OCC2CCCO2)cc1 (stereo not drawn) [Comp. 420] | 147 to 148.5 °C |  |  | Inhibition rate (1 μM) ([1]; 1 μM of the subject compound): 118.6; IC50 [1, 2]: 8 nM |
| COc1ccc(N/C=N/O)c(C)c1 [Comp. 19] | 144 to 145 °C |  |  | Inhibition rate (1 μM) [1, 3]: 88.0; IC50 [1, 4]: 338 nM |
| O/N=C/Nc1ccc(OCc2ccco2)cc1 [Comp. 352] | 158.5 to 159.5 °C | 97 | 4.6 nM |  |
| CCC(C)c1ccc(N/C=N/O)cc1 (stereo not drawn) [Comp. 4] | 101 to 102.5 °C |  |  |  |
| CCOCCCOc1ccc(N/C=N/O)cc1 [Comp. 371] | 93 to 94 °C | 110.4 | 0.9 nM |  |
| CC(C)=CCOc1ccc(N/C=N/O)cc1 [Comp. 334] | 125 to 126 °C | 105 | 3.2 nM |  |
| OCc1ccc(N/C=N/O)cc1 [Comp. 209] | 169.5 to 170 °C | 102.2 | 152 nM |  |
| CCOC(=O)c1cccc(N/C=N/O)c1 [Comp. 127] | 137.5 to 138.5 °C |  |  |  |
| O/N=C/Nc1ccc(Cl)c(Cl)c1 [Comp. 24] | 119 to 120.5 °C |  |  | Inhibition rate (1 μM) [1, 3]: 89.2; IC50 [1, 4]: 520 nM |
| CC(C)c1cccc(N/C=N/O)c1 [Comp. 29] | 93 to 94.5 °C |  |  | Inhibition rate (1 μM) [1, 3]: 93.6 |
| CCOC(=O)CCCCOc1ccc(N/C=N/O)cc1 [Comp. 433] | 125 to 127 °C |  |  | IC50 [1, 2]: 1.5 nM |
| O/N=C/Nc1cccc(Br)c1 [Comp. 82] | 133.5 to 134.5 °C |  |  | Inhibition rate (1 μM) [1, 3]: 70.9 |
| CC/C=C/COc1ccc(N/C=N/O)cc1 [Comp. 338] | 100 to 102 °C | 119.8 | 0.9 nM |  |
| O/N=C/Nc1ccc(Br)c2ccccc12 [Comp. 235] | 167.5 to 168 °C | 77.8 | 5920 nM |  |
| CCCOc1ccc(N/C=N/O)cc1 [Comp. 317] | 132 to 133 °C |  |  |  |
| O/N=C/Nc1ccc(SCc2ccco2)cc1 [Comp. 448] | 125 to 126.5 °C |  |  | Inhibition rate (1 μM) ([1]; 1 μM of the subject compound): 109.8; IC50 [1, 2]: 1.9 nM |
| O/N=C/Nc1ccc(OCCCCCN2CCCC2)cc1 [Comp. 432] | 116.5 to 117.5 °C |  |  | IC50 [1, 2]: 19.5 nM |
| O/N=C/Nc1ccc(OCCCc2ccncc2)cc1 [Comp. 366] | 188 to 189 °C | 105 | 1.2 nM |  |

| SMILES | melting point | Inhibition rate (1 μM) [1, 5] | IC50 [1, 6] | further results |
| --- | --- | --- | --- | --- |
| COc1cccc(COc2ccc(N/C=N/O)cc2)c1OC [Comp. 394] | 144 to 145 °C | 119.9 | 3.9 nM |  |
| CCc1cccc(N/C=N/O)c1 [Comp. 21] | 115.5 to 116.5 °C |  |  | Inhibition rate (1 μM) [1, 3]: 81.1 |
| O/N=C/Nc1ccc(OCC2CCCCO2)cc1 (stereo not drawn) [Comp. 421] | 153 to 154.5 °C |  |  | Inhibition rate (1 μM) ([1]; 1 μM of the subject compound): 113.3; IC50 [1, 2]: 3.9 nM |
| CC1(C)OCC(COc2ccc(N/C=N/O)cc2)O1 (stereo not drawn) [Comp. 348] | 128.5 to 129.5 °C | 103 | 3.4 nM |  |
| O/N=C/Nc1ccc2c(c1)CCC2 [Comp. 238] | 142.5 to 144 °C | 101.6 | 30 nM |  |
| COc1ccc(N/C=N/O)cc1 [Comp. 18] | 139 to 140 °C |  |  | Inhibition rate (1 μM) [1, 3]: 94.6; IC50 [1, 4]: 45.2 nM |
| CC1(C)COC(CCOc2ccc(N/C=N/O)cc2)OC1 [Comp. 364] | 136.5 to 137.5 °C | 104 | 2 nM |  |
| O/N=C/Nc1cccc2c1CCCC2 [Comp. 231] | 168.5 to 169 °C | 92.9 | 196 nM |  |
| O/N=C/Nc1cccc(C(F)(F)F)c1 [Comp. 46] | 100.5 to 102 °C |  |  | Inhibition rate (1 μM) [1, 3]: 48.5; IC50 [1, 4]: 355 nM |
| COc1ccccc1COc1ccc(N/C=N/O)cc1 [Comp. 382] | 153 to 153.5 °C | 122.5 | 3.1 nM |  |
| O/N=C/Nc1ccc(N2CCOCC2)c(Cl)c1 [Comp. 302] | 177.5 to 178 °C |  |  |  |
| CCCOC(=O)c1ccc(N/C=N/O)cc1 [Comp. 44] | 145 to 146 °C |  |  | IC50 [1, 4]: 8.1 nM |
| O/N=C/Nc1ccc(SCc2ccccc2)cc1 [Comp. 441, N-[4-(benzylthio)phenyl]-N′-hydroxyformamidine] | 166 °C |  |  | Inhibition rate (1 μM) ([1]; 1 μM of the subject compound): 94.2 |
| O/N=C/Nc1ccc(F)cc1 [Comp. 12] | 139.5 to 140.5 °C |  |  | Inhibition rate (1 μM) [1, 3]: 77.1; IC50 [1, 4]: 1420 nM |
| CC(C)(C)CCOc1ccc(N/C=N/O)cc1 [Comp. 325] | 123 to 125 °C | 106 | 2.6 nM |  |
| OCCCSc1ccc(N/C=N/O)cc1 [Comp. 459] | 108 to 108.5 °C |  |  | Inhibition rate (1 μM) ([1]; 1 μM of the subject compound): 119.0; IC50 [1, 2]: 2.4 nM |
| COC(=O)c1ccc(N/C=N/O)cc1 [Comp. 37] | 167 to 167.5 °C |  |  |  |
| CCc1cc(Br)cc(CC)c1N/C=N/O [Comp. 53] | 159 to 160 °C |  |  |  |
| Cc1ccc(N/C=N/O)cc1 [Comp. 10] | 143.5 to 144.5 °C |  |  |  |

From US7078400B2, “20-HETE synthase inhibitor” (Taisho Pharmaceutical Co., Ltd., priority 1999, dated 2006)
